Active and inactive are the calls of the source. No cut-off for these calls is given here.
What was measured:
[1] = Cytotoxicity against mouse Shh Light2 cells by cell titer glo assay; type: cell-based; conditions: shh light ii
[2] = molecular target: Sonic hedgehog protein (Mus musculus) (UniProt Q62226); test: Inhibition of SHH in mouse Ptch deffective MEF cells after 30 hrs by Gli-responsive beta-galactosidse reporter gene assay; type: cell-based
[3] = molecular target: Sonic hedgehog protein (Mus musculus) (UniProt Q62226); test: Inhibition of SHH in mouse Shh Light2 cells after 30 hrs by GLI-responsive bright glo luciferase reporter gene assay relative to cyclopamine; type: functional, cell-based; conditions: Shh Light II
Sonic hedgehog protein [4] = molecular target: Sonic hedgehog protein (Homo sapiens, UniProt Q15465); test: Binding affinity to recombinant Shh N-terminal peptide by surface plasma resonance
Sonic hedgehog protein [5] = molecular target: Sonic hedgehog protein (Mus musculus, UniProt Q62226); test: (§1) Inhibition of SHH in mouse Shh Light2 cells after 30 hrs by GLI-responsive bright glo luciferase reporter gene assay; type: functional, cell-based, Shh Light II
[6] = molecular target: Sonic hedgehog protein (Mus musculus) (UniProt Q62226); test: Inhibition of SHH in mouse Shh Light2 cells after 30 hrs by GLI-responsive bright glo luciferase reporter gene assay relative to 6 uM cyclopamine; type: functional, cell-based; conditions: Shh Light II
[7] = molecular target: Sonic hedgehog protein (Mus musculus) (UniProt Q62226); test: as §1; type: functional, cell-based; conditions: Shh Light II
[8] = molecular target: Sonic hedgehog protein (Mus musculus) (UniProt Q62226); test: Inhibition of SHH in mouse Shh Light2 cells after 30 hrs by GLI-responsive bright glo luciferase reporter gene assay at 15.6 uM relative to 6 uM cyclopamine; type: functional, cell-based; conditions: Shh Light II

Sequence of Sonic hedgehog protein (Homo sapiens, UniProt Q15465) (Q15465 24-197 limits assumed): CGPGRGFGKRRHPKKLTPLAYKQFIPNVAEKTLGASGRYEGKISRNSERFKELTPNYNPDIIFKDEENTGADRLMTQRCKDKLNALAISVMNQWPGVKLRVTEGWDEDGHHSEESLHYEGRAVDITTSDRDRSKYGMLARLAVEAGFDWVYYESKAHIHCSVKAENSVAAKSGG
Sequence of Sonic hedgehog protein (Mus musculus, UniProt Q62226) (Q62226 25-198 limits assumed): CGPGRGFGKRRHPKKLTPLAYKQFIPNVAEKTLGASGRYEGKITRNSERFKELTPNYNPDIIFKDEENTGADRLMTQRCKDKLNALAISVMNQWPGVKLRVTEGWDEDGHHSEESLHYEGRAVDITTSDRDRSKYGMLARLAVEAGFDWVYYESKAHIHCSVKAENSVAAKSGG

Row | SMILES | Activity [1] | inhibition [2] | Activity (Sonic hedgehog protein [4]) | further results
1 | O=C(C[C@H]1C/C=C/CCCC(=O)O[C@H](c2ccccc2)CNC1=O)NCc1ccc(Cl)cc1 | Non-toxic | inactive | – | ECmax [3]: 71%
2 | O=C(C[C@H]1C/C=C/CCCCC(=O)OCCNC1=O)NCc1ccc(Cl)cc1 | Non-toxic | inactive | – | –
3 | O=C(C[C@H]1C/C=C/CCCCC(=O)O[C@H](c2ccccc2)CNC1=O)NCc1ccc(Cl)cc1 | Non-toxic | inactive | – | inhibition (Sonic hedgehog protein [4]): inactive
4 | O=C(C[C@@H]1C/C=C/CCC(=O)O[C@H](c2ccccc2)CNC1=O)NCc1ccc(Cl)cc1 [ROBOTNIKININ] | Non-toxic | inactive | Dose-dependent effect | EC50 (Sonic hedgehog protein [5]): 4 µM; ECmax [6]: 91%
5 | O=C(C[C@@H]1C/C=C/CCCCC(=O)OCCNC1=O)NCc1ccc(Cl)cc1 | Non-toxic | inactive | Dose-dependent effect | ECmax [6]: 70%
6 | O=C(C[C@H]1C/C=C/CCC(=O)O[C@@H](c2ccccc2)CNC1=O)NCc1ccc(Cl)cc1 | Non-toxic | inactive | Dose-dependent effect | –
7 | O=C(C[C@@H]1C/C=C/CCCC(=O)O[C@@H](c2ccccc2)CNC1=O)NCc1ccc(Cl)cc1 | Non-toxic | inactive | Dose-dependent effect | –
8 | O=C(C[C@@H]1C/C=C/CCCC(=O)OCCNC1=O)NCc1ccc(Cl)cc1 | Non-toxic | inactive | Dose-dependent effect | –
9 | O=C(C[C@H]1C/C=C/CCC(=O)O[C@H](c2ccccc2)CNC1=O)NCc1ccc(Cl)cc1 | Non-toxic | inactive | Dose-dependent effect | ECmax [7]: 62.5 µM
10 | O=C(C[C@H]1C/C=C/CCC(=O)OCCNC1=O)NCc1ccc(Cl)cc1 | Non-toxic | inactive | Dose-dependent effect | ECmax [6]: 50%
11 | O=C(C[C@@H]1C/C=C/CCC(=O)OCCNC1=O)NCc1ccc(Cl)cc1 | Non-toxic | inactive | Dose-dependent effect | ECmax [6]: 55%
12 | O=C(C[C@H]1C/C=C/CCCC(=O)O[C@@H](c2ccccc2)CNC1=O)NCc1ccc(Cl)cc1 | Non-toxic | inactive | Dose-dependent effect | Kd (Sonic hedgehog protein [4]): 3.1 µM
13 | O=C(C[C@@H]1C/C=C/CCC(=O)O[C@@H](c2ccccc2)CNC1=O)NCc1ccc(Cl)cc1 | > 15.6 µM | inactive | Dose-dependent effect | ECmax [8]: 57%
14 | O=C(C[C@@H]1C/C=C/CCCCC(=O)O[C@@H](c2ccccc2)CNC1=O)NCc1ccc(Cl)cc1 | > 31 µM | inactive | Dose-dependent effect | –
15 | O=C(C[C@@H]1C/C=C/CCCC(=O)O[C@H](c2ccccc2)CNC1=O)NCc1ccc(Cl)cc1 | Non-toxic | inactive | Dose-dependent effect | ECmax [6]: 93%
16 | O=C(C[C@@H]1C/C=C/CCCCC(=O)O[C@H](c2ccccc2)CNC1=O)NCc1ccc(Cl)cc1 | Non-toxic | inactive | Dose-dependent effect | –
17 | O=C(C[C@H]1C/C=C/CCCC(=O)OCCNC1=O)NCc1ccc(Cl)cc1 | Non-toxic | inactive | – | –
18 | O=C(C[C@H]1C/C=C/CCCCC(=O)O[C@@H](c2ccccc2)CNC1=O)NCc1ccc(Cl)cc1 | Non-toxic | inactive | – | –

Reference: ChEMBL document CHEMBL1154349, “Syntheses of aminoalcohol-derived macrocycles leading to a small-molecule binder to and inhibitor of Sonic Hedgehog” (Bioorg Med Chem Lett, 2009)
